These are literature values, as cited in patent US20260224521A1, “BIOMOLECULE FOR TREATMENT OF CORNEAL PATHOLOGIES” (Board of Supervisors of Louisiana State University and …, priority 2019, published 2026).

The subject of data set [1] is AXL receptors. The following applies: osteoporosis mouse model (97); cited from earlier work.
The conditions of data set [2]: topical NGF (95); cited from earlier work.

As to `CC/C=C\C[C@@H](O)/C=C/C=C/C/C=C\C/C=C\C/C=C\CCC(=O)O` [17R-hydroxy DHA], the pain behavior entry in data set [1] is on record as “decrease pain behavior”.
Consider NGF: nerve growth factor, for which, in data set [2], the “side effect of topical treatment” value is given as “ocular pain”.
